Legend:
[1] = target: Protein kinase C alpha type (Homo sapiens, UniProt P17252); type: cell-based; conditions: sf9;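 further: inhibition of PKCalpha kinase activity measured in an enzyme assay with histone as the phosphorylation substrate; in other assays of this panel Not Active means under 50% inhibition at 10 µM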
[2] = target: Voltage-gated inwardly rectifying potassium channel KCNH2 (Homo sapiens, UniProt Q12809); conditions: hek293; further: in other assays of this panel Not Active means under 50% inhibition at 10 µM
Chain of Voltage-gated inwardly rectifying potassium channel KCNH2 (Q12809 whole entry): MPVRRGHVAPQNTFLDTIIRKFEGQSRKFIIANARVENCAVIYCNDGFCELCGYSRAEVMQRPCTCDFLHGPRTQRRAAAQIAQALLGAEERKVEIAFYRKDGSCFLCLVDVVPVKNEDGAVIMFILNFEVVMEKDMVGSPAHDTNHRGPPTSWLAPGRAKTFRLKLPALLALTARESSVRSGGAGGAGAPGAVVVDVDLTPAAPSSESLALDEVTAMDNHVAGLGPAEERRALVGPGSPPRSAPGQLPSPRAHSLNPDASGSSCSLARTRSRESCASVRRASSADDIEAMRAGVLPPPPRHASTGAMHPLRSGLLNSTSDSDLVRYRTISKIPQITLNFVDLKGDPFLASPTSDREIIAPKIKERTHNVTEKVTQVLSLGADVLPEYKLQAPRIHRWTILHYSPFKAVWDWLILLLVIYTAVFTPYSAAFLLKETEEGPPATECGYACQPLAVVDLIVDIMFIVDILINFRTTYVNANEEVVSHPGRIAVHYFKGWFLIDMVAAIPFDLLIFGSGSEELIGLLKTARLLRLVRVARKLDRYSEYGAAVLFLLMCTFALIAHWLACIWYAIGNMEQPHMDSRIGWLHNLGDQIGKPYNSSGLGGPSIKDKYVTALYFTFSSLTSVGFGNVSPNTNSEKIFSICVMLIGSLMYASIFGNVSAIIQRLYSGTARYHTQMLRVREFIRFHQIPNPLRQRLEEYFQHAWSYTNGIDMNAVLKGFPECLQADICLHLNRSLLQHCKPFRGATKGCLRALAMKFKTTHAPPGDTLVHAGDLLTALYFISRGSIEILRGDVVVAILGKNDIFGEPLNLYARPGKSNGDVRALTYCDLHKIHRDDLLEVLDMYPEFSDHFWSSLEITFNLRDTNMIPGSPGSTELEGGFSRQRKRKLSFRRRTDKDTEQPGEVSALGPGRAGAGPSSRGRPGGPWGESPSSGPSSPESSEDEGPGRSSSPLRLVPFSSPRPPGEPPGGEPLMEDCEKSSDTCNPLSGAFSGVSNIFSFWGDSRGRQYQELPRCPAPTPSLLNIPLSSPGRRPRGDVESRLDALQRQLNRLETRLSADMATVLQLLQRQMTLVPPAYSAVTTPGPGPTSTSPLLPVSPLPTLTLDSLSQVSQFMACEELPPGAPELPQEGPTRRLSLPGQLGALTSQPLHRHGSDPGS

[3] = target: T1, Alpha-2A adrenergic receptor (Homo sapiens, UniProt P08913); type: cell membranes, Sf9, Membrane; further: in other assays of this panel Not Active means under 50% inhibition at 10 µM
T1 sequence (P08913 whole entry): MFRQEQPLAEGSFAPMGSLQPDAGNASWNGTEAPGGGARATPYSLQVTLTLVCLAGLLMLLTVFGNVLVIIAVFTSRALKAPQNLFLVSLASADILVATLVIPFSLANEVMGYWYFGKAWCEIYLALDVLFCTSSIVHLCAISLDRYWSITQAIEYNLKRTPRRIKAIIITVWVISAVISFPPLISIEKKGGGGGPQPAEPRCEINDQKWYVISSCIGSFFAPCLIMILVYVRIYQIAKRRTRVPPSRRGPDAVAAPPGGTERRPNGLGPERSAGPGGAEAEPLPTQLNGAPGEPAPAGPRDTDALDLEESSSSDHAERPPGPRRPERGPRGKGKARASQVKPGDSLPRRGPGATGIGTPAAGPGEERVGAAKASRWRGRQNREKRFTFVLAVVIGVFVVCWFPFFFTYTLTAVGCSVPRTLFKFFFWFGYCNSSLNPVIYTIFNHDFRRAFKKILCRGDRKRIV

[4] = target: cGMP-specific 3',5'-cyclic phosphodiesterase (Homo sapiens, UniProt O76074); assay: DRUGMATRIX: Phosphodiesterase PDE5 enzyme inhibition (substrate: [3H]cGMP + cGMP); type: tissue-based, Platelet; conditions: platelet; Not Active = under 50% inhibition at 10 µM
[5] = target: T2, Alpha-1B adrenergic receptor (Rattus norvegicus, UniProt P15823); assay: DRUGMATRIX: Alpha-1B adrenergic receptor radioligand binding (ligand: prazosin); type: cell membranes, Wistar, Liver, Membrane; conditions: Not Active = under 50% inhibition at 10 µM
T2 sequence (P15823 whole entry): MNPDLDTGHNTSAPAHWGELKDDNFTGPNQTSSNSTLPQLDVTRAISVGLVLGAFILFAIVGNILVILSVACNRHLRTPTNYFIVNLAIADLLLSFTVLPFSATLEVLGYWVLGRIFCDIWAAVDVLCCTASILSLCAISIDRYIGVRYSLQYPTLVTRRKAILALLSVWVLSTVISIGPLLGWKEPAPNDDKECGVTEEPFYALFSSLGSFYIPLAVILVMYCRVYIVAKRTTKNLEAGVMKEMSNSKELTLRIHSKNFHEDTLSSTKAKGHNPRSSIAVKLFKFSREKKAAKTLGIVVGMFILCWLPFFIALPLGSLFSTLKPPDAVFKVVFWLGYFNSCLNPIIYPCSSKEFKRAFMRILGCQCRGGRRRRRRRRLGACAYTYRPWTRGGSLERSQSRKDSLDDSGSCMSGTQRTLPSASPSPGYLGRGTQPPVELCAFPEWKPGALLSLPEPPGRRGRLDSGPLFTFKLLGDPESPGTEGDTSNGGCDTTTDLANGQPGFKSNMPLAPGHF

Cytochrome P450 2E1 = Cytochrome P450 2E1 (Homo sapiens, UniProt P05181); conditions: bti-tn-5b1-4; further: in other assays of this panel Not Active means under 50% inhibition at 10 µM
Chain of Cytochrome P450 2E1 (P05181 whole entry): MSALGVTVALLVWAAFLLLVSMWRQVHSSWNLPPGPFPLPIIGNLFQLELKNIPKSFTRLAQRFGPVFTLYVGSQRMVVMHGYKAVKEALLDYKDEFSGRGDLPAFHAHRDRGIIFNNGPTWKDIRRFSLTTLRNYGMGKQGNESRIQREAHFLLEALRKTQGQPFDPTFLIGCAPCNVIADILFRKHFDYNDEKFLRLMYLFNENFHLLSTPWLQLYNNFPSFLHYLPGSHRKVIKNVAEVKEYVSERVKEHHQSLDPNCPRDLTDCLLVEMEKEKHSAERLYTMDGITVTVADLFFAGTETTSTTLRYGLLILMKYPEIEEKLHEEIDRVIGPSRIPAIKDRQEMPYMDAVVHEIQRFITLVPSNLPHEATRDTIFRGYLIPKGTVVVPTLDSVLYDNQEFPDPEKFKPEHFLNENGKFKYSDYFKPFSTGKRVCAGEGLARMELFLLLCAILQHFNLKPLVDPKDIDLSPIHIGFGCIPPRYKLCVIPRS

Cytochrome P450 1A2 = target: T3, Cytochrome P450 1A2 (Homo sapiens, UniProt P05177); conditions: bti-tn-5b1-4; further: in other assays of this panel Not Active means under 50% inhibition at 10 µM
T3 sequence (P05177 whole entry): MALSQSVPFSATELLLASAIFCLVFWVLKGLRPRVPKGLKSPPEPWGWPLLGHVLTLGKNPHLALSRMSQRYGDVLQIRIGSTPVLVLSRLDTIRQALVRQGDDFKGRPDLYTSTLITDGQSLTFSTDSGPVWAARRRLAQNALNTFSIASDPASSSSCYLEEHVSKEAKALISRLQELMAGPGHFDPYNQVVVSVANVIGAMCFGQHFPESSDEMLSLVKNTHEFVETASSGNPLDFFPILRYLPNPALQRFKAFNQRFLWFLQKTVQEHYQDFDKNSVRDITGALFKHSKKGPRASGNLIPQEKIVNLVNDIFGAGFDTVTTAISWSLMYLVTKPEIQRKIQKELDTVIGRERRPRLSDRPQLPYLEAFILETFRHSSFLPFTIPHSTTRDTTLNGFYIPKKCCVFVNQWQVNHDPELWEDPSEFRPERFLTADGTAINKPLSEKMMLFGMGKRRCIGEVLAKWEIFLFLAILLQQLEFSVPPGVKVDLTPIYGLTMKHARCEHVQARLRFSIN

D(1A) dopamine receptor = D(1A) dopamine receptor (Homo sapiens, UniProt P21728); assay: DRUGMATRIX: Dopamine D1 radioligand binding (ligand: [3H] SCH-23390); type: cell membranes, CHO, Membrane; conditions: cho; Not Active = under 50% inhibition at 10 µM
Chain of D(1A) dopamine receptor (P21728 whole entry): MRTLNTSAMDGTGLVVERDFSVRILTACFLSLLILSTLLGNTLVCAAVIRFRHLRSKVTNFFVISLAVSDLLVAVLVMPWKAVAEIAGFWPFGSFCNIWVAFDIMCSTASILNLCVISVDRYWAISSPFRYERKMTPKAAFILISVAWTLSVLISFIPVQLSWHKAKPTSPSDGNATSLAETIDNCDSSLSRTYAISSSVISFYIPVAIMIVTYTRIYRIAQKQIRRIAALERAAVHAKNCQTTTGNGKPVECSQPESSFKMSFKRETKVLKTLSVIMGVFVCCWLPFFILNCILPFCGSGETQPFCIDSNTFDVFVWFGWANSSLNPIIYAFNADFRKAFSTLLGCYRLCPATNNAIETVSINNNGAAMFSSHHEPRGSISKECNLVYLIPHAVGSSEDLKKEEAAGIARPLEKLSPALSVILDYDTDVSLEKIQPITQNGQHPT

[6] = target: T4, 3-hydroxy-3-methylglutaryl-coenzyme A reductase (Homo sapiens, UniProt P04035); design: species or system Escherichia coli
T4 sequence (P04035 whole entry): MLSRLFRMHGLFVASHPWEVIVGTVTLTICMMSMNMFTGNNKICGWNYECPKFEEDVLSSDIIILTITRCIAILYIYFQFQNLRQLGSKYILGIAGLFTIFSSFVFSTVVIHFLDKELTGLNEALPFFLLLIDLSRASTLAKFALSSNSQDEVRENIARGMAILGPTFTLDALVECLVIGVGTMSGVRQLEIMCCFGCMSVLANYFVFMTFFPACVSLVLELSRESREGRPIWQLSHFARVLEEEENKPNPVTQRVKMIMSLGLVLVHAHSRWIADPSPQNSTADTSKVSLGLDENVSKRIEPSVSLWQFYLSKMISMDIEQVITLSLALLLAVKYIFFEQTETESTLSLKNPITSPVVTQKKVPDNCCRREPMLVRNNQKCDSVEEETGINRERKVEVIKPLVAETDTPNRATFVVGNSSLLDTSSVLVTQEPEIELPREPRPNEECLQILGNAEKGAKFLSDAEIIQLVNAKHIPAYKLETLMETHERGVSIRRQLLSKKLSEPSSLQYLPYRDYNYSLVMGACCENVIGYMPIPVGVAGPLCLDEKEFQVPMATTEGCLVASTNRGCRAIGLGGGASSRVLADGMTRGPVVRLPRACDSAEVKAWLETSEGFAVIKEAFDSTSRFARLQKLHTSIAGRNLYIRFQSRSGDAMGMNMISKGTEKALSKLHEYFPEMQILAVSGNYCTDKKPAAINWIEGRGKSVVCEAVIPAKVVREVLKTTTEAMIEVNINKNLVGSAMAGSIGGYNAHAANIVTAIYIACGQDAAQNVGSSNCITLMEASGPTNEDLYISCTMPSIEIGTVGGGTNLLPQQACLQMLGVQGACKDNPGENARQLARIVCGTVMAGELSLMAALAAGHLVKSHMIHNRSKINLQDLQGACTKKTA

Glycine receptor = Glycine receptor (Rattus norvegicus, UniProt P22771+P24524+P07727+P20781); type: cell membranes, Wistar, Spinal cord, Membrane; further: in other assays of this panel Not Active means under 50% inhibition at 10 µM

Compound | IC50 [1] | IC50 [2] | Ki [2] | IC50 ([3]; sf9) | IC50 [4] | IC50 [5] | IC50 (Cytochrome P450 2E1) | Ki (Cytochrome P450 2E1) | IC50 (Cytochrome P450 1A2) | Ki (Cytochrome P450 1A2) | IC50 (D(1A) dopamine receptor) | IC50 [6] | IC50 (Glycine receptor) | IC50 ([3]; read-out: IC50) [µM] | Ki ([3]; read-out: Ki) [µM]
O=C1CN=C(c2ccccc2)c2cc([N+](=O)[O-])ccc2N1 [NITRAZEPAM] | Not Active | Not Active | Not Active | Not Active | Not Active | Not Active | Not Active | Not Active | Not Active | Not Active | Not Active | Not Active | Not Active |  | 
CC1=Nc2ccc(Cl)cc2S(=O)(=O)N1 [DIAZOXIDE] | Not Active | Not Active | Not Active | Not Active | Not Active | Not Active | Not Active | Not Active | Not Active | Not Active | Not Active | Not Active | Not Active |  | 
CCCCCCCCCc1ccc(O)cc1 [4-NONYLPHENOL] | Not Active | Not Active | Not Active |  | Not Active | Not Active | Not Active | Not Active | Not Active | Not Active | Not Active | Not Active | Not Active | 6.78 | 2.54
CC1COc2c(N3CCN(C)CC3)c(F)cc3c(=O)c(C(=O)O)cn1c23 (stereo not given) [OFLOXACIN] | Not Active | Not Active | Not Active | Not Active | Not Active | Not Active | Not Active | Not Active | Not Active | Not Active | Not Active | Not Active | Not Active |  | 
CC(C)(S)[C@@H](N)C(=O)O [PENICILLAMINE] | Not Active | Not Active | Not Active | Not Active | Not Active | Not Active | Not Active | Not Active | Not Active | Not Active | Not Active | Not Active | Not Active |  | 
CC(=O)CCCCn1c(=O)c2c(ncn2C)n(C)c1=O [PENTOXIFYLLINE] | Not Active | Not Active | Not Active | Not Active | Not Active | Not Active | Not Active | Not Active | Not Active | Not Active | Not Active | Not Active | Not Active |  | 
Nc1nc(=O)[nH]cc1F [FLUCYTOSINE] | Not Active | Not Active | Not Active | Not Active | Not Active | Not Active | Not Active | Not Active | Not Active | Not Active | Not Active | Not Active | Not Active |  | 
CCC1(c2ccccc2)C(=O)NCNC1=O [PRIMIDONE] | Not Active | Not Active | Not Active | Not Active | Not Active | Not Active | Not Active | Not Active | Not Active | Not Active | Not Active | Not Active | Not Active |  | 
